# Measured values reported in patent US20020137929A1, “1 - (3-heterocyclylphenyl) isothiourea, -isourea, -guanidine and -amidine herbicidal agents” (Intellectual Property Department, BASF Aktiengesellschaft, priority 1998, published 2002).
# Legend:
# [1] = system: CHEAL (Lambsquarters, Common); assay: Preemergence herbicidal evaluation; type: in vivo, Chenopodium album; settings: rated 4-5 weeks after treatment
# Summary of the method: (§1)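 Scores use a 0–9 visual scale covering stand, vigor, malformation, size and chlorosis relative to controls, rated four to five weeks after treatment. Before emergence, soil-planted seeds were sprayed with compound in aqueous acetone at roughly 0.0156–0.500 kg/ha and held in the greenhouse.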
# [2] = system: GLXMAW (Soybean, Williams); assay: Postemergence herbicidal evaluation; type: in vivo, Glycine max, (L.) Merr. cv Williams; settings: postemergence
# Summary of the method: (§2)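 Two-week-old seedlings sprayed with compound in 50/50 acetone/water plus 0.5% TWEEN 20, at about 0.0156 to 0.500 kg/ha, nozzle at 40 psi. Kept in greenhouse; rated visually 4-5 weeks after treatment on a 0-9 scale versus control, repeat tests averaged.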
# [3] = system: AMBEL (Ragweed, Common); assay: Postemergence herbicidal evaluation; type: in vivo, Ambrosia artemisifolia; settings: postemergence
# Summary of the method: as §2
# [4] = system: ABUTH (Velvetleaf); assay: Postemergence herbicidal evaluation; type: in vivo, Abutilon theophrasti; settings: postemergence
# Summary of the method: as §2
# [5] = system: CYPSE (Flatsedge); assay: Postemergence weed control under flooded paddy conditions; type: in vivo, Cyperus serotinus; settings: postemergence weeds, 3-4 weeks after treatment
# Summary of the method: (§3)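 Flood-water application, about 0.0313–0.500 kg/ha a.i. in aqueous/acetone 50/50 v/v; water depth 1.5–3 cm throughout. Weeds 3–5 cm, rice 1.5–2.5 leaf. Greenhouse; 0–9 visual rating vs control at 3–4 wk.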
# [6] = system: CYPIR (Rice Flatsedge); assay: as above; type: in vivo, Cyperus iria; settings: postemergence weeds, 3-4 weeks after treatment
# Summary of the method: as §3
# [7] = system: ECHCG (Barnyardgrass); assay: Postemergence herbicidal evaluation; type: in vivo, Echinochloa crus-galli; settings: postemergence
# Summary of the method: as §2
# [8] = system: CHEAL (Lambsquarters, Common); assay: Postemergence herbicidal evaluation; type: in vivo, Chenopodium album; settings: postemergence
# Summary of the method: as §2
# [9] = system: CYPSE (Flatsedge); assay: Preemergence weed control under flooded paddy conditions; type: in vivo, Cyperus serotinus; settings: rated 3-4 weeks after treatment
# Summary of the method: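 Flooded-pot preemergence screen with silt loam and seeds in the upper 0.5 cm. Dose about 0.0313 to 0.500 kg/ha, delivered into flood water; visual 0-9 score after 3 to 4 weeks.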
# [10] = system: ZEAMX (Corn, Field); assay: Postemergence herbicidal evaluation; type: in vivo, Zea mays; settings: postemergence
# Summary of the method: as §2
# [11] = system: ORYSAT (Rice, Tebonnet); assay: Postemergence herbicidal evaluation; type: in vivo, Oryza sativa, (L.) Tebonnet; settings: postemergence
# Summary of the method: as §2
# [12] = system: GALAP (Galium); assay: Preemergence herbicidal evaluation; type: in vivo, Galium aparine; settings: rated 4-5 weeks after treatment
# Summary of the method: as §1
# [13] = system: CASOB (Sicklepod); assay: Preemergence herbicidal evaluation; type: in vivo, Cassia obtusifolia; settings: rated 4-5 weeks after treatment
# Summary of the method: as §1
# [14] = system: AMBEL (Ragweed, Common); assay: Preemergence herbicidal evaluation; type: in vivo, Ambrosia artemisifolia; settings: rated 4-5 weeks after treatment
# Summary of the method: as §1
compound,measurement,setting,value
CCOC(=O)CN1C(=O)C(CC(=O)O)S/C1=N/c1cc(-n2c(=O)cc(C(F)(F)F)n(C)c2=O)c(F)cc1Cl (centres unmarked) [Compound 16],CHEAL preemergence herbicidal rating,[1]; rate 0.0156 kg/ha,5.7
same,CHEAL preemergence herbicidal rating,[1]; rate 0.0313 kg/ha,8.4
same,CHEAL preemergence herbicidal rating,[1]; rate 0.0625 kg/ha,8.8
same,CHEAL preemergence herbicidal rating,[1]; rate 0.1250 kg/ha,9.0
same,CHEAL preemergence herbicidal rating,[1]; rate 0.2500 kg/ha,9.0
same,CHEAL preemergence herbicidal rating,[1]; rate 0.5000 kg/ha,9.0
same,GLXMAW herbicidal rating,[2]; rate 0.0157 kg/ha,9.0
same,GLXMAW herbicidal rating,[2]; rate 0.0313 kg/ha,8.6
same,GLXMAW herbicidal rating,[2]; rate 0.0625 kg/ha,8.9
same,GLXMAW herbicidal rating,[2]; rate 0.1250 kg/ha,9.0
same,GLXMAW herbicidal rating,[2]; rate 0.2500 kg/ha,9.0
same,AMBEL herbicidal rating,[3]; rate 0.0157 kg/ha,9.0
same,AMBEL herbicidal rating,[3]; rate 0.0313 kg/ha,8.0
same,AMBEL herbicidal rating,[3]; rate 0.0625 kg/ha,9.0
same,AMBEL herbicidal rating,[3]; rate 0.1250 kg/ha,9.0
same,AMBEL herbicidal rating,[3]; rate 0.2500 kg/ha,9.0
same,ABUTH herbicidal rating,[4]; rate 0.0157 kg/ha,9.0
same,ABUTH herbicidal rating,[4]; rate 0.0313 kg/ha,9.0
same,ABUTH herbicidal rating,[4]; rate 0.0625 kg/ha,9.0
same,ABUTH herbicidal rating,[4]; rate 0.1250 kg/ha,9.0
same,ABUTH herbicidal rating,[4]; rate 0.2500 kg/ha,9.0
same,Herbicidal rating CYPSE,[5]; rate 0.0313 kg/ha,0.0
same,Herbicidal rating CYPSE,[5]; rate 0.0625 kg/ha,0.0
same,Herbicidal rating CYPSE,[5]; rate 0.1250 kg/ha,0.0
same,Herbicidal rating CYPSE,[5]; rate 0.2500 kg/ha,0.0
same,Herbicidal rating CYPIR,[6]; rate 0.0313 kg/ha,0.0
same,Herbicidal rating CYPIR,[6]; rate 0.0625 kg/ha,0.0
same,Herbicidal rating CYPIR,[6]; rate 0.1250 kg/ha,4.0
same,Herbicidal rating CYPIR,[6]; rate 0.2500 kg/ha,9.0
same,ECHCG herbicidal rating,[7]; rate 0.0157 kg/ha,3.0
same,ECHCG herbicidal rating,[7]; rate 0.0313 kg/ha,8.8
same,ECHCG herbicidal rating,[7]; rate 0.0625 kg/ha,9.0
same,ECHCG herbicidal rating,[7]; rate 0.1250 kg/ha,9.0
same,ECHCG herbicidal rating,[7]; rate 0.2500 kg/ha,9.0
same,CHEAL herbicidal rating,[8]; rate 0.0157 kg/ha,9.0
same,CHEAL herbicidal rating,[8]; rate 0.0313 kg/ha,8.2
same,CHEAL herbicidal rating,[8]; rate 0.0625 kg/ha,9.0
same,CHEAL herbicidal rating,[8]; rate 0.1250 kg/ha,9.0
same,CHEAL herbicidal rating,[8]; rate 0.2500 kg/ha,9.0
same,Herbicidal rating CYPSE,[9]; 0.0313 kg/ha,0.0
same,Herbicidal rating CYPSE,[9]; 0.0625 kg/ha,0.0
same,Herbicidal rating CYPSE,[9]; 0.1250 kg/ha,0.0
same,Herbicidal rating CYPSE,[9]; 0.2500 kg/ha,0.0
same,ZEAMX herbicidal rating,[10]; rate 0.0157 kg/ha,8.0
same,ZEAMX herbicidal rating,[10]; rate 0.0313 kg/ha,8.1
same,ZEAMX herbicidal rating,[10]; rate 0.0625 kg/ha,8.4
same,ZEAMX herbicidal rating,[10]; rate 0.1250 kg/ha,8.7
same,ZEAMX herbicidal rating,[10]; rate 0.2500 kg/ha,9.0
same,ORYSAT herbicidal rating,[11]; rate 0.0157 kg/ha,3.0
same,ORYSAT herbicidal rating,[11]; rate 0.0313 kg/ha,4.2
same,ORYSAT herbicidal rating,[11]; rate 0.0625 kg/ha,5.7
same,ORYSAT herbicidal rating,[11]; rate 0.1250 kg/ha,7.3
same,ORYSAT herbicidal rating,[11]; rate 0.2500 kg/ha,7.5
same,GALAP preemergence herbicidal rating,[12]; rate 0.0156 kg/ha,1.2
same,GALAP preemergence herbicidal rating,[12]; rate 0.0313 kg/ha,2.0
same,GALAP preemergence herbicidal rating,[12]; rate 0.0625 kg/ha,4.8
same,GALAP preemergence herbicidal rating,[12]; rate 0.1250 kg/ha,6.4
same,GALAP preemergence herbicidal rating,[12]; rate 0.2500 kg/ha,8.2
same,GALAP preemergence herbicidal rating,[12]; rate 0.5000 kg/ha,9.0
same,CASOB preemergence herbicidal rating,[13]; rate 0.0156 kg/ha,0.3
same,CASOB preemergence herbicidal rating,[13]; rate 0.0313 kg/ha,0.6
same,CASOB preemergence herbicidal rating,[13]; rate 0.0625 kg/ha,2.7
same,CASOB preemergence herbicidal rating,[13]; rate 0.1250 kg/ha,5.3
same,CASOB preemergence herbicidal rating,[13]; rate 0.2500 kg/ha,8.3
same,CASOB preemergence herbicidal rating,[13]; rate 0.5000 kg/ha,9.0
same,AMBEL preemergence herbicidal rating,[14]; rate 0.0156 kg/ha,2.3
same,AMBEL preemergence herbicidal rating,[14]; rate 0.0313 kg/ha,4.5
same,AMBEL preemergence herbicidal rating,[14]; rate 0.0625 kg/ha,7.8
same,AMBEL preemergence herbicidal rating,[14]; rate 0.1250 kg/ha,8.5
same,AMBEL preemergence herbicidal rating,[14]; rate 0.2500 kg/ha,8.9
same,AMBEL preemergence herbicidal rating,[14]; rate 0.5000 kg/ha,9.0
